Columns and labels:
[1] = test system: primary oligodendrocyte cultures (3 DIV); test: Oligodendrocyte morphological differentiation scoring (simple, incomplete, complete, membrane), process and cell number; format: cell-based, mouse; conditions: 24 hours
Experimental: (§1) Oligodendrocyte Cultures: Purified cortical oligodendrocyte progenitor cells (OPCs) and differentiated oligodendrocytes were isolated from mixed glial cultures derived from postnatal day 1 mice (McCarthy and de Vellis, J Cell Blot 85:890-902, 1980). Glial cultures were grown in media containing DMEM, 2 mM Glutamax, 1 mM sodium pyruvate, 20 mM HEPES, and 10% heat-inactivated fetal calf serum (Atlanta Biologicals, Lawrenceville, GA). OPCs were isolated from 10 days-in-vitro (DIV) mixed glial cultures by overnight shaking and purified by differential adhesion. OPCs were seeded in defined Neurobasal A media containing 1% N2, 50 U/mL penicillin/streptomycin, 2 mM Glutamax, 1 mM sodium pyruvate, 0.45% glucose, and 50 μM β-mercaptoethanol (Sigma Aldrich, USA). OPCs were seeded at 3×10^4/cm^2 onto tissue culture plastic or 12 mm glass cover slips coated with poly-L-lysine (PLL, 10 μg/mL). After 24 h, cultures were 92-98% immunoreactive (IR) for sulfatide (O4) and by 72 hours at least 80% were also MBP-IR.
(§2) PAR agonist-induced changes in oligodendrocyte morphology: To determine the effects of recombinant Klk6, Klk1, thrombin, or PAR1-AP on oligodendroglia, 3 DIV PAR1^+/+, PAR1^−/−, and PAR2^−/− oligodendrocytes, PAR1^+/+ OPCs immediately post purification, or Oli-neu cells were grown on cover slips in the presence of agonists for 24 h. For ATP toxicity assays, oligodendrocytes were incubated with ATP (50 μM, Sigma Aldrich) in the presence of Klk6 or Klk1. Following each treatment, oligodendrocyte and OPC cultures were immunolabeled for O4 to visualize the cell body and processes. Oli-neu processes were visualized by staining the actin cytoskeleton with Cy3-conjugated Phalloidin.
(§3) To assess the effects of Klk6 and other PAR1 agonists on oligodendrocyte morphology and process stability, 20× digital micrographs were overlaid with a 780 μm^2 grid and ImageJ software 1.45r (National Institutes of Health) used to record cell number and the number of processes crossing horizontal grid lines (Scarisbrick et al., Brain 125:1283-1296, 2002). Data are expressed as the mean number of O4^+ or Phalloidin^+ processes per DAPI^+ cell (±SEM).
The extent of oligodendrocyte morphological differentiation was determined by scoring O4^+/DAPI^+ oligodendrocyte morphology as simple (only primary processes, no secondary branching), incomplete (one or more primary process without secondary branching), complete (all primary processes with secondary branching), or membrane (complete secondary branching with membrane sheets) (Huang et al., Nat Neurosci 14:45-53, 2011). The mean number of cells in each morphology class was determined across treatments and expressed as percent of total O4^+/DAPI^+ cells.
(§4) Changes in OPC or oligodendrocyte morphology were quantified from five microscopic fields per cover slip with the mean and SEM calculated across three cover slips per experiment. Each experiment was repeated at least twice using independent cultures. Analysis of oligodendrocyte morphology was performed without knowledge of treatment groups.

[2] = test system: oligodendrocyte progenitor cells (OPCs); test: OPC process outgrowth; format: cell-based, mouse; conditions: 24 h
Experimental: as §1, §2, §3, §4

[3] = test system: PLP and MBP RNA expression; test: Myelin gene expression (PLP, MBP RNA) in Oli-neu oligodendrocytes, quantitative RT-PCR; format: cell-based, mouse; conditions: 24 hours
Experimental: Oli-neu oligodendrocytes are derived from mouse primary oligodendrocyte cultures retrovirally transduced to constitutively express the t-neu oncogene (Jung et al., Eur J Neurosci 7:1245-1265, 1995). All morphology, signaling, and myelin gene expression studies using Oli-neu oligodendrocytes were performed in media containing DMEM, 1% N2, 2 mM Glutamax, 1 mM sodium pyruvate, 20 mM HEPES buffer, and 50 μM β-mercaptoethanol (Sigma Aldrich. To evaluate PAR and Klk6 gene expression in Oli-neu (Table 2), cells were differentiated by treatment with 1 mM N^6, 2′-O-dibutyryladenosine 3′, 5′-cyclic monophosphate disodium salt (dbcAMP) for 72 hours prior to harvesting for RNA isolation. All cells were maintained at 37° C. in 95% air and 5% CO2. Cell culture reagents were obtained from Life Technologies (Carlsbad, CA) unless otherwise indicated. All cell culture experiments were performed in triplicate and repeated at least twice.
Expression of oligodendrocyte PARs and Klk6-real-time quantitative PCR: Total RNA was isolated from cultured cells using RNA STAT-60 (Tel-Test, Friendswood, TX). Klk6, PAR1, or PAR2 RNA expression was determined in 0.5 μg of RNA with the iScript one-step RT-PCR kit with SYBR® Green and the iCycler iQ5 system (BioRad, Hercules, CA). Transcript copy number was determined using a standard curve prepared by parallel amplification of cDNA clones diluted to known copy number (Christophi et al., J Neurochem 91:1439-1449, 2004). Amplification of the housekeeping gene glyceraldehyde phosphate 3-dehydrogenase (GAPDH) was used to control for loading. The mean and standard error (SEM) of transcript copy number was determined and data expressed as RNA copy number on a logarithmic scale.
Regulation of oligodendrocyte myelin gene expression by PAR1 agonists: Primary murine oligodendrocytes (3 DIV) or Oli-neu oligodendrocytes were seeded at 3.5×10^5 cells/well in six-well tissue culture plates. Cells were then treated with Klk6 (30-300 nM), Klk1 (300 nM), thrombin (270 nM), or PAR1-AP (100 μM) for 24 hours prior to RNA isolation. Expression of myelin-associated genes, PLP, and MBP was examined by real-time quantitative RT-PCR. Expression levels of target genes were normalized to GAPDH and expressed as percent control.

[4] = test system: rat primary oligodendrocytes; conditions: 30 or 300 nM, 24 hours; cited from earlier work

Klk6: Recombinant murine kallikrein-related peptidase 6 expressed using a baculovirus system
number of incomplete oligodendrocyte morphologies ([1]; 150 nM): greater than four-fold increase
number of simple oligodendrocyte morphologies ([1]; 150 nM): two-fold increase
oligodendrocytes with complete morphology ([1]; 150 nM): nearly eleven-fold decrease
oligodendroglia with membrane morphology ([1]; 150 nM): elimination
oligodendrocyte number ([1]; Klk6 150 nM, Klk1 300 nM): no significant effect
processes per cell ([1]; Klk6 150 nM, Klk1 300 nM): two-fold fewer
fewer processes per cell compared with controls ([2]; 150 nM): ~60%
number of OPCs [2]: significantly reduced
OPC process extension / outgrowth ([2]; Klk6 150 nM, thrombin 135 nM, Klk1 150 nM): significantly fewer processes than thrombin treated cultures
MBP RNA [3]: no significant suppression
PLP RNA at 30, 150 and 300 nM [3]: significant and equivalent PLP RNA down regulation
PLP expression ([3]; Klk6 300 nM, thrombin 270 nM, PAR1-AP 100 μM, Klk1 300 nM): significantly diminished
process retraction and oligodendrocyte degeneration [4]: significant process retraction without oligodendrocyte degeneration
